Common to all, as to test: DTP human tumour cell line panel, 48 h
The test system of test [1] is NCI-H226.
The subject of test [2] is SK-MEL-5.
Test [3] has as its system IGROV-1.
Test [4] relates to UACC-257.
Test [5] concerns SF-295.
Test [6] deals with CCRF-CEM.
The test system of test [7] is UACC-62.
In test [8] the test system is 786-0.
In test [9] the test system is OVCAR-4.
Test [10] has as its system CAKI-1.
The subject of test [11] is HT-29.
Test [12] deals with COLO 205.
Test [13] deals with OVCAR-8.
Test [14] deals with OVCAR-5.

Here are results for 15 molecules from ChEMBL document CHEMBL1201862, “PubChem BioAssay data set” (2004).

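Method: 48-hour compound exposure of cells in 96-well plates, five concentrations, linear interpolation of endpoints. GI50 marks 50% less growth.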 Active and inactive are the calls of the source. Cut-off read from the data, not from the text of the source: active = GI50 up to about 1.1 µM and inactive = higher.

As for `[C-]#[N+][C@@H]1C2[C@H](CC[C@@]1(C)O)C(=C)CC[C@@H]2[C@@]1(C)CC[C@H](Cl)C(C)(C)O1` (stereo not given in full), the GI50 (commonly the concentration giving 50% growth inhibition) is 4.46 µM (inactive) in test [1]; 3.02 µM (inactive) in [2]; 3.49 µM (inactive) in [3]; 8.32 µM (inactive) in test [4]; 12.1 µM (inactive) in test [5]; 2.77 µM (inactive) in [6]. The GI50 in [7] was 3.59 µM (inactive); in test [8], 10.3 µM (inactive); in test [9], 3.24 µM (inactive); in test [10] it was 4.82 µM (inactive); in test [11], 11.9 µM (inactive); in test [12] it was 3.2 µM (inactive). Also, in [13], the GI50 was 3.29 µM (inactive).

For `CCC12C=C(C(=O)OC)N3c4ccccc4C4CCN(CCC1)C2C43` (stereo not given), the GI50 in test [14] is 40.9 µM (inactive); in [1], 25.3 µM (inactive); in test [2] it was 72.1 µM (inactive); in [3], > 100 µM (inactive); in test [4] it was 34.2 µM (inactive); in [5] it was 98.2 µM (inactive). For the same molecule, the GI50 in test [6] is > 100 µM (inactive); in [7], > 100 µM (inactive); in test [8], 21.3 µM (inactive); in [9], 97.9 µM (inactive); in test [10] it was 35.6 µM (inactive); in test [11], 32.1 µM (inactive). For the same molecule, the GI50 is 31.9 µM (inactive) in [12] and > 100 µM (inactive) in [13].

As for `COC(=O)C1(C)NCCc2c1[nH]c1ccccc21` (stereo not given), the GI50 in [14], in test [2], in test [3], in test [5], in test [6] and in [7] was > 100 µM (inactive) throughout. For the same molecule, the GI50 in test [8], in test [9], in test [10], in test [11], in [12] and in [13] was > 100 µM (inactive) in each case.

`CC1=N/C(=C\c2cccc3ccccc23)C(=O)O1`: the GI50 in [14], in test [2], in test [3], in test [4], in test [5] and in test [6] was > 100 µM (inactive) throughout. The GI50 in test [7], in test [8], in test [11], in [12] and in [13] was > 100 µM (inactive) in each case.

As for `C=C1CCC(OC(C)=O)C2(C)C(OC(C)=O)CC3OC3(C)C2C(OC(C)=O)C2C(C)C(=O)OC2C1Cl` (stereo not given), the GI50 in test [14], in test [1], in [2], in test [3], in [4] and in test [5] was > 100 µM (inactive) each time. For the same molecule, the GI50 in test [6], in [7], in test [8], in test [9], in test [10] and in test [11] was > 100 µM (inactive) in each case. In addition, the GI50 in test [12] and in [13] was > 100 µM (inactive) each time.

With `COc1ccc2nc3cc(Cl)ccc3c(NC(C)CCCN(CCCl)CCCl)c2c1` (stereo not given), the GI50 in [14] is 0.929 µM (active); in [1] it was 0.387 µM (active); in test [2], 1.97 µM (inactive); in test [3], 0.317 µM (active); in [4], 1.43 µM (inactive); in test [5], 0.215 µM (active). For the same molecule, the GI50 in [6] was 0.0612 µM (active); in test [7] it was 0.29 µM (active); in test [8] it was 0.31 µM (active); in test [9], 0.849 µM (active); in test [10] it was 0.785 µM (active); in [11], 0.272 µM (active). In addition, the GI50 in test [12] was 0.397 µM (active); in test [13], 0.169 µM (active).

With `COc1ccc(C(=O)C(C(=O)CC(=O)Nc2cccc(C(F)(F)F)c2)c2ccc(OC)cc2)cc1` (stereo not given), the GI50 is 7.73 µM (inactive) in test [14]; > 100 µM (inactive) in test [1]; > 100 µM (inactive) in test [2]; > 100 µM (inactive) in [3]; > 100 µM (inactive) in [4]; > 100 µM (inactive) in [5]. For the same molecule, the GI50 in test [6], in test [7], in test [8], in [9], in [10] and in test [11] was > 100 µM (inactive) throughout. For the same molecule, the GI50 in test [12] and in [13] was > 100 µM (inactive) in each case.

Consider `Cc1nc2ccccn2c1/N=N/c1ccc(C(=O)NN)cc1`, for which the GI50 is 36.1 µM (inactive) in test [14]; 25.5 µM (inactive) in test [1]; 22.4 µM (inactive) in [2]; 21.7 µM (inactive) in test [3]; 97.5 µM (inactive) in test [4]; 43.2 µM (inactive) in test [5]. The GI50 was 4.59 µM (inactive) in test [6]; 80.2 µM (inactive) in test [7]; 53.8 µM (inactive) in test [8]; > 100 µM (inactive) in [9]; 22.2 µM (inactive) in test [10]; 73.5 µM (inactive) in [11]. Further, the values for the GI50 in test [12] and in test [13] were 51.2 µM (inactive) and 95.3 µM (inactive), respectively.

As to `Nc1cccc(C(=O)/C=C/c2ccccc2O)c1`, the GI50 in test [14], in test [1], in [2], in test [3], in [4] and in [5] was > 100 µM (inactive) each time. In addition, the GI50 in test [6] is 27.5 µM (inactive); in [7], > 100 µM (inactive); in [8], 33.1 µM (inactive); in [10], > 100 µM (inactive); in test [11], 68.2 µM (inactive); in [12] it was > 100 µM (inactive). Also, the GI50 in [13] was > 100 µM (inactive).

Consider `CN(C)C(=N)c1ccccc1`, for which the GI50 in [14], in [1], in test [4], in [5], in [8] and in [9] was > 100 µM (inactive) each time. Besides, the GI50 in test [10], in [11], in [12] and in test [13] was > 100 µM (inactive) in each case.

`NC(=O)C(=O)Cc1nc2ccccc2s1`: the GI50 in test [14], in [1], in test [4], in test [5], in [6] and in test [8] was > 100 µM (inactive) each time. Further, the GI50 in test [9], in test [11], in test [12] and in test [13] was > 100 µM (inactive) each time.

Turning to `N#CC(C#N)=c1ccc(=C2N3CCCC3CN2C23CC4CC(CC(C4)C2)C3)cc1` (stereo not given), the GI50 in test [14], in test [1], in test [2], in [3], in test [4] and in test [5] was > 100 µM (inactive) throughout. For the same molecule, the GI50 in test [6] is > 100 µM (inactive); in test [7] it was 90.6 µM (inactive); in [8], > 100 µM (inactive); in test [11] it was > 100 µM (inactive); in test [12], > 100 µM (inactive); in [13], > 100 µM (inactive).

As for `COC(=O)CCC(NC(=S)N/N=C(\C)c1cnccn1)C(=O)OC` (stereo not given), the GI50 in test [14] was 21 µM (inactive); in [1], 44.5 µM (inactive); in test [2], 34.2 µM (inactive); in test [3], 69.8 µM (inactive); in test [4], 33.8 µM (inactive); in test [5], 52.4 µM (inactive). Moreover, the GI50 in test [6] is 16.8 µM (inactive); in test [7], 28.6 µM (inactive); in test [8], 58.6 µM (inactive); in [9] it was 56.2 µM (inactive); in [11] it was 93.3 µM (inactive); in [12], 34.4 µM (inactive). In test [13], the GI50 is 38.6 µM (inactive).

Take `CCc1ccccc1N1C(=O)C(=O)C(c2nc3ccccc3s2)C(=O)C1=O`: the GI50 in test [14] was > 100 µM (inactive); in test [1], > 100 µM (inactive); in [2] it was 92 µM (inactive); in test [3] it was > 100 µM (inactive); in test [4], > 100 µM (inactive); in [5], 83 µM (inactive). The GI50 in test [6] was 37.6 µM (inactive); in [7] it was > 100 µM (inactive); in test [8] it was > 100 µM (inactive); in [9], 79.8 µM (inactive); in [10], > 100 µM (inactive); in test [11], > 100 µM (inactive). Further, in test [13], the GI50 was 41.8 µM (inactive).

Regarding `O=C(CC1Sc2ccccc2NC1=O)Nc1ccc([N+](=O)[O-])cc1[N+](=O)[O-]` (stereo not given), the GI50 in test [14] was 29.2 µM (inactive); in test [1], 11.9 µM (inactive); in [2], 15.8 µM (inactive); in test [3] it was 17.4 µM (inactive); in test [4], 19.9 µM (inactive); in test [5] it was 16.8 µM (inactive). The GI50 in test [6] is 15.6 µM (inactive); in test [7], 15.4 µM (inactive); in [8], 17.9 µM (inactive); in test [9], 17.2 µM (inactive); in test [11], 17.7 µM (inactive); in test [12], 26.7 µM (inactive). The GI50 in test [13] is 16.5 µM (inactive).
